According to US20230219986A1, “NOVEL AMINOPYRIMIDINE EGFR INHIBITOR” (QILU PHARMACEUTICAL CO., LTD., priority 2020, published 2023):

Assays:
[1] = tested on: EGFR wild-type cell line A431; assay: Cell proliferation inhibition experiment (CellTiter-Glo), A431; assay type: cell-based; settings: Homo sapiens, A-431, 72 h, A431 cells, Cell Titer-Glo, read-out: A431 EGFR WT IC50
In short: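 A431 cells, 800 per well, were cultured 24 h and then exposed to serially diluted compound (0.1% DMSO final) for 72 h at 37° C., 5% CO2.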

[2] = target: T1, L858R/T790M/C797S triple mutant EGFR (Homo sapiens, UniProt P00533, C797S/L858R/T790M); assay: Enzymology experiment in vitro (HTRF/FRET kinase activity), L858R/T790M/C797S triple mutant EGFR; assay type: biochemical; settings: HTRF KinEASE-TK, read-out: EGFR (L858R/T790M/C797S) IC50
T1 construct: purchased Signalchem
In short: (§1)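 HTRF KinEASE-TK format: EGFR enzyme preincubated with compound 10 min at room temperature, then peptide substrate plus ATP added for 40 min. Detection with EDTA, XL665-streptavidin and Eu³⁺-labeled antibody for 1 h.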

wild-type EGFR = target: T2, wild-type EGFR (Homo sapiens, UniProt P00533); assay: Enzymology experiment in vitro (HTRF/FRET kinase activity), wild-type EGFR; assay type: biochemical; settings: HTRF KinEASE-TK, read-out: EGFR (WT) IC50
T2 construct: purchased Signalchem
In short: as §1

[3] = target: Ba/F3 L858R/T790M/C797S EGFR triple mutant cell line (Homo sapiens, UniProt P00533, T790M/C797S/L858R, cells depend on it); assay: Cell proliferation inhibition experiment (CellTiter-Glo), Ba/F3 L858R/T790M/C797S; assay type: cell-based; settings: 72 hours, Cell Titer-Glo, read-out: Ba/F3 (L858R/T790M/C797S) IC50
[4] = target: Ba/F3 De119/T790M/C797S EGFR triple mutant cell line (Homo sapiens, UniProt P00533, T790M/C797S, cells depend on it, form not given); assay: Cell proliferation inhibition experiment (CellTiter-Glo), Ba/F3 De119/T790M/C797S; assay type: cell-based; settings: Ba/F3 Del19/T790M/C797S EGFR triple mutant cells, 72 hours, Cell Titer-Glo; read-out: Ba/F3 (Del19/T790M/C797S) IC50
Ba/F3 De119/T790M/C797S EGFR triple mutant cell line, sequence (P00533 with tags, fused parts or gaps DEL746-750/T790M/C797S, form open): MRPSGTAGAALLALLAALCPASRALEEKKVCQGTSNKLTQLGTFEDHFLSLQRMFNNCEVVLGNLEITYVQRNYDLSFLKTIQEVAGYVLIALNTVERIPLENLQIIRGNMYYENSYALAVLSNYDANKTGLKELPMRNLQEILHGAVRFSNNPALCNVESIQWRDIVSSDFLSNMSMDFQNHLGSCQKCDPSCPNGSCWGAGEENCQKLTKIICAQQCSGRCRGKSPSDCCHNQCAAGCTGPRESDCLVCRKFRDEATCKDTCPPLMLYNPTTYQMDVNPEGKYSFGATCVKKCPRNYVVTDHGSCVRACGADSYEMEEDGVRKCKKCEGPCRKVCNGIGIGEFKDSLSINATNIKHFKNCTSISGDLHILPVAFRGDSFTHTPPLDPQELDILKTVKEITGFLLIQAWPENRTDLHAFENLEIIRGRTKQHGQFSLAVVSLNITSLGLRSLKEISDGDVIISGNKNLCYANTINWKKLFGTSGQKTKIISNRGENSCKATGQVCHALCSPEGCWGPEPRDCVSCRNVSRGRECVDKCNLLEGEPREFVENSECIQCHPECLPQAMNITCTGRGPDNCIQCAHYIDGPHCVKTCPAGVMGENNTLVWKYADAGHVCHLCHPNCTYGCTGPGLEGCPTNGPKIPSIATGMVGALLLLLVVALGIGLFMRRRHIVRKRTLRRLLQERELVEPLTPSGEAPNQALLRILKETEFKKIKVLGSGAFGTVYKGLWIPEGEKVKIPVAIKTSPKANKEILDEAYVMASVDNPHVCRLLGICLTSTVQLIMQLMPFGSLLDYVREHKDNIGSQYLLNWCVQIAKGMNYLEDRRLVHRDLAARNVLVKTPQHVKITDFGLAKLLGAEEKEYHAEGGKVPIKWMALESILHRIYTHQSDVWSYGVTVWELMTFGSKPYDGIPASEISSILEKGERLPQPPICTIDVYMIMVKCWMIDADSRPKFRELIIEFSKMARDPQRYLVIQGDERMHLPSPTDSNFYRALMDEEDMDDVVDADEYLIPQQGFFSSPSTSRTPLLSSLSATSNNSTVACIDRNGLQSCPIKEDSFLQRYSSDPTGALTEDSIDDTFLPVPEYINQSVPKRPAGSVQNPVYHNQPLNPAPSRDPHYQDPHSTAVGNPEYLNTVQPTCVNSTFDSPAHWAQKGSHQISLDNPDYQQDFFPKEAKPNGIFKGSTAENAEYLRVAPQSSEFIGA

T2 sequence (P00533 25-1210): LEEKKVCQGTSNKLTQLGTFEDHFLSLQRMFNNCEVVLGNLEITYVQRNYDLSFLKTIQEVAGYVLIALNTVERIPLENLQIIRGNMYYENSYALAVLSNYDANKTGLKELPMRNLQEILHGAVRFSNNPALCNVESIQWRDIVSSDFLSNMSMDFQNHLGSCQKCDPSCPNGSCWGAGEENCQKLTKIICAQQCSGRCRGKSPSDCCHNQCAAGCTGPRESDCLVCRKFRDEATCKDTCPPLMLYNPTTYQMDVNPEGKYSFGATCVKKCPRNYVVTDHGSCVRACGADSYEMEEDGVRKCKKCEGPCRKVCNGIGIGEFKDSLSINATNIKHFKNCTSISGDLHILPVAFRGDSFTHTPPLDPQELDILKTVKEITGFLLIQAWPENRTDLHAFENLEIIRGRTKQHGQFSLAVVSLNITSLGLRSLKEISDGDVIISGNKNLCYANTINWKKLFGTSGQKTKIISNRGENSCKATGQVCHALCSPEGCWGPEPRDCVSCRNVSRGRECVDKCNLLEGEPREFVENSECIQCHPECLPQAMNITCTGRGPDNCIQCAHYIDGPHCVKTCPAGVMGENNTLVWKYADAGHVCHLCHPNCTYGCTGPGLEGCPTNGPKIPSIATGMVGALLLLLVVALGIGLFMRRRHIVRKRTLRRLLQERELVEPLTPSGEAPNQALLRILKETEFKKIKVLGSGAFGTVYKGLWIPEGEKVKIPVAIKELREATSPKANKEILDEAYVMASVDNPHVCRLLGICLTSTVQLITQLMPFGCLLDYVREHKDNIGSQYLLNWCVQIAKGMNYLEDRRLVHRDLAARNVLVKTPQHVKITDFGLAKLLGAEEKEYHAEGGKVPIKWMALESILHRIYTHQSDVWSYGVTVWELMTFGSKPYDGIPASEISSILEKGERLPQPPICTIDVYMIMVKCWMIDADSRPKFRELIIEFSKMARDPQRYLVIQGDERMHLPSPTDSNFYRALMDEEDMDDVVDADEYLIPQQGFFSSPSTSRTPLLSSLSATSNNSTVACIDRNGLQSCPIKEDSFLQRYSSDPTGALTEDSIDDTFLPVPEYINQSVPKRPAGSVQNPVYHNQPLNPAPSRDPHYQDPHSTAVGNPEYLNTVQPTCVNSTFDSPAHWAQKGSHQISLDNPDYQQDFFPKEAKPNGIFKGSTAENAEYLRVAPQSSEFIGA
Ba/F3 L858R/T790M/C797S EGFR triple mutant cell line, sequence (P00533 whole entry T790M/C797S/L858R): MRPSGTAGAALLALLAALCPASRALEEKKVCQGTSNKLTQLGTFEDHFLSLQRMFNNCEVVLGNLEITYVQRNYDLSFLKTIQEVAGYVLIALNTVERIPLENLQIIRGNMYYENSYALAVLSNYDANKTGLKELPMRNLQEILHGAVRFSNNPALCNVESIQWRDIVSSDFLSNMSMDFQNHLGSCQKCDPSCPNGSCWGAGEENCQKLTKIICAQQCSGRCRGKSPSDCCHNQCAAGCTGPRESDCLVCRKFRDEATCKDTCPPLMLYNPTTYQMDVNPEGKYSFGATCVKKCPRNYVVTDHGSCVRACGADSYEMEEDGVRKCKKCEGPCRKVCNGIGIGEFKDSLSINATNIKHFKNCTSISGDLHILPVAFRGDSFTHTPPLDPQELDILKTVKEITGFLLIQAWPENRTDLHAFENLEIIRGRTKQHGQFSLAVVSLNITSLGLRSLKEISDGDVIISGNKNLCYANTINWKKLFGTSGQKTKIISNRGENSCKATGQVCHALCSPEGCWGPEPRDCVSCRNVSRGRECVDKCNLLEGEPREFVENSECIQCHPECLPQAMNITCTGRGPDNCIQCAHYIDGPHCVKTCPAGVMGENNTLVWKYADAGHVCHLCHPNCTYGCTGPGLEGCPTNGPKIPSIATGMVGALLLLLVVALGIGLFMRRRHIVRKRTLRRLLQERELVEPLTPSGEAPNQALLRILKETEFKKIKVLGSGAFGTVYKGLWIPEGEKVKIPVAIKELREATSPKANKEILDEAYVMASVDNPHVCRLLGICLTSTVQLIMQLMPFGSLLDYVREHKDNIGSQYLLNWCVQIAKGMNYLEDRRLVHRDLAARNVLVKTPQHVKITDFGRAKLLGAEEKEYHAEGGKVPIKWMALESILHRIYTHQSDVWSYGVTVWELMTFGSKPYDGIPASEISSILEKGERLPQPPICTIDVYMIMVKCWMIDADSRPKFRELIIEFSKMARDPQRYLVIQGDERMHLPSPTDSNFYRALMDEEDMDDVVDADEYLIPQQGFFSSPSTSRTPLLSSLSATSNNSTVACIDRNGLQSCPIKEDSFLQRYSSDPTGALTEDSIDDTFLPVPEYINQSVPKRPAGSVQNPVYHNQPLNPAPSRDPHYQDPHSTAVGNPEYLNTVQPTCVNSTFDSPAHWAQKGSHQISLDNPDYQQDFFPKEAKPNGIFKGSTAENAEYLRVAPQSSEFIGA
T1 sequence (P00533 25-1210 T790M/C797S/L858R): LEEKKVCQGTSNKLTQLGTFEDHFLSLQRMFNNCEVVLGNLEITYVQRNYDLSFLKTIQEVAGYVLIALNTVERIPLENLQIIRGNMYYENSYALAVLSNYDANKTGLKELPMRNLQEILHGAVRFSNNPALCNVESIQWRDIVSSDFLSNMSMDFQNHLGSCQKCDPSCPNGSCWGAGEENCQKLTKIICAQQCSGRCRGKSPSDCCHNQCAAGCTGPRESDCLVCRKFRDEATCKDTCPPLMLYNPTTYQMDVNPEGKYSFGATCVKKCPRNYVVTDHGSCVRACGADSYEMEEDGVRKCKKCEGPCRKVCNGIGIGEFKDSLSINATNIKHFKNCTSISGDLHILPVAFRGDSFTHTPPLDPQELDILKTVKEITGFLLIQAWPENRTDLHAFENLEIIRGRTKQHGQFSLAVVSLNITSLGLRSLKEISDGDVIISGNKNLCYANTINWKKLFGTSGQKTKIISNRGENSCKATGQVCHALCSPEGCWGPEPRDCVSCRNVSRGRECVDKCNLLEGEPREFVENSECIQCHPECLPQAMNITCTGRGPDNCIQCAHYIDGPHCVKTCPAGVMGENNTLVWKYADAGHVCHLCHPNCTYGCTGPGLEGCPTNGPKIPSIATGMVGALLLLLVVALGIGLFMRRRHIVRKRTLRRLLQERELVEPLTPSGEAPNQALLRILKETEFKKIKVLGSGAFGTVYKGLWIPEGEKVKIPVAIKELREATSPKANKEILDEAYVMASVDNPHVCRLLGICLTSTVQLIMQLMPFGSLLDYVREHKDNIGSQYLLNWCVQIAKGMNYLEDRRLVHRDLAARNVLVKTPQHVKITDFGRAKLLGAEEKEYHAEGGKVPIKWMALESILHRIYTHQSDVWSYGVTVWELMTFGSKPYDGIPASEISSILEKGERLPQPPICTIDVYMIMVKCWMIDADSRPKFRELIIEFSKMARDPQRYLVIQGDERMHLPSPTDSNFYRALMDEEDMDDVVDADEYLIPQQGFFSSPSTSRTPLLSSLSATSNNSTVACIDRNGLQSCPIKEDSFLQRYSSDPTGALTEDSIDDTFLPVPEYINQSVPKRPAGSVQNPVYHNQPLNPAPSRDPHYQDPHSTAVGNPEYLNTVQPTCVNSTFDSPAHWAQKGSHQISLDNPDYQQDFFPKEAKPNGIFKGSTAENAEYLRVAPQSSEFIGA

SMILES	IC50 [1] [nM]	IC50 [2] [nM]	IC50 (wild-type EGFR) [nM]	GI50 [3] [nM]	GI50 [4] [nM]
COc1cc(N2CCC(N3CCO[C@@H](C)C3)CC2)c(-c2cnn(C)c2)cc1Nc1ncc(Br)c(Nc2ccc3nccnc3c2P(C)(C)=O)n1 [compound 165]	70.2	0.69	1.36	2.62	0.8
COc1cc(N2CCN3CCCC[C@H]3C2)c(-c2cnn(C)c2)cc1Nc1ncc(Br)c(Nc2ccc3nccnc3c2P(C)(C)=O)n1 [compound 166]	92.1	0.48	3.81	5.05	1.58
COc1cc(N2CCC3(CCN(CC4CC4)CC3)CC2)c(-c2cnn(C)c2)cc1Nc1ncc(Br)c(Nc2ccc3nccnc3c2P(C)(C)=O)n1 [compound 167]	47.4	0.79	1.95	4.34	2.97
COc1cc(N2CCC3CCN(C)C3C2)c(-c2cnn(C)c2)cc1Nc1ncc(Br)c(Nc2ccc3nccnc3c2P(C)(C)=O)n1 (stereo not drawn) [compound 168]	67.4	0.35	2.57	4.2	0.71
COc1cc(N2CCO[C@H](C)C2)c(-c2cnn(C)c2)cc1Nc1ncc(Br)c(Nc2ccc3nccnc3c2P(C)(C)=O)n1 [compound 169]	175	0.73	4.39	4.24	2.36
COc1cc(N2CCO[C@@H](C)C2)c(-c2cnn(C)c2)cc1Nc1ncc(Br)c(Nc2ccc3nccnc3c2P(C)(C)=O)n1 [compound 170]	280	0.45	4.94	8.14	1.8
COc1cc(N2CCOCC2)c(-c2cnn(C)c2)cc1Nc1ncc(Br)c(Nc2ccc3nccnc3c2N(C)S(C)(=O)=O)n1 [compound 171, N-(6-((5-bromo-2-((2-methoxy-5-(1-methyl-1H-pyrazol-4-yl)-4-morpholinophenyl)amino)pyrimidin-4-yl)amino)quinoxalin-5-yl)-N-methylmethanesulfonamide]	623	0.29	4.59	7.23	2.13
COc1cc(N2CCC(N3CC4(CN(C)C4)C3)CC2)c(-c2cnn(C)c2)cc1Nc1ncc(Br)c(Nc2ccc3nccnc3c2P(C)(C)=O)n1 [compound 172]	329	0.14	0.69	328	102
COc1cc(N2CCC(N(C)C(C)C(F)(F)F)CC2)c(-c2cnn(C)c2)cc1Nc1ncc(Br)c(Nc2ccc3nccnc3c2P(C)(C)=O)n1 (stereo not drawn) [compound 173]	738	6	50.7	24.5	11.2
COc1cc(N2CCN3CCCC[C@@H]3C2)c(-c2cnn(C)c2)cc1Nc1ncc(Br)c(Nc2ccc3nccnc3c2P(C)(C)=O)n1 [compound 175]	41.3	0.33	3.1	5.38	1.7
COc1cc(N2CCN3CCC[C@@H]3C2)c(-c2cnn(C)c2)cc1Nc1ncc(Br)c(Nc2ccc3nccnc3c2P(C)(C)=O)n1 [compound 176]	61.9	0.34	3.26	5.96	2.97
COc1cc(N2CCN(S(=O)(=O)C3CC3)CC2)c(-c2cnn(C)c2)cc1Nc1ncc(Br)c(Nc2ccc3nccnc3c2P(C)(C)=O)n1 [compound 178]	168	1.29	7.68	13	2.86
COc1cc(N2CCC(N3CCC(OC)CC3)CC2)c(-c2cnn(C)c2)cc1Nc1ncc(Br)c(Nc2ccc3nccnc3c2P(C)(C)=O)n1 [compound 179]	54.3	0.4	1.48	6.84	1.37
COc1cc(N2CCC(N3CCC(F)CC3)CC2)c(-c2cnn(C)c2)cc1Nc1ncc(Br)c(Nc2ccc3nccnc3c2P(C)(C)=O)n1 [compound 180]	64.8	0.36	1.4	6.53	4.13
[2H]C([2H])([2H])OCCN1CCN(c2cc(OC)c(Nc3ncc(Br)c(Nc4ccc5nccnc5c4P(C)(C)=O)n3)cc2-c2cnn(C)c2)CC1 [compound 181]	88.9	0.16	3.53	9.67	3.52
COc1cc(N2CCOC(COC(C)C)C2)c(-c2cnn(C)c2)cc1Nc1ncc(Br)c(Nc2ccc3nccnc3c2P(C)(C)=O)n1 (stereo not drawn) [compound 182]	101	0.4	8.49	4.43	1.71
COc1cc(N2CCC3(CCN(C)CC3)CC2)c(-c2cnn(C)c2)cc1Nc1ncc(Br)c(Nc2ccccc2N(C)S(=O)(=O)C2CC2)n1 [compound 183, N-(2-((5-Bromo-2-((2-methoxy-5-(1-methyl-1H-pyrazol-4-yl)-4-)(9-methyl-3,9-diazaspiro[5.5]undecan-3-yl)phenyl)amino)pyrimidin-4-yl)amino)phenyl-N-methylcyclopropanesulfonamide]	246	1.12	12.2	27	14.4
COc1cc(N2CCN(C3(C)COC3)CC2)c(-c2cnn(C)c2)cc1Nc1ncc(Br)c(Nc2ccc3nccnc3c2P(C)(C)=O)n1 [compound 184]	218	0.24	2.23	5.67	2.28
COc1cc(N2CCC(N3CC[C@H](OC)[C@H](F)C3)CC2)c(-c2cnn(C)c2)cc1Nc1ncc(Br)c(Nc2ccc3nccnc3c2P(C)(C)=O)n1 [compound 185]	127	0.36	2.42	4.02	1.77
COc1cc(N2CCC(N3CCN(CC(F)F)CC3)CC2)c(-c2cnn(C)c2)cc1Nc1ncc(Br)c(Nc2ccc3nccnc3c2P(C)(C)=O)n1 [compound 186]	62	0.37	1.19	3.47	1.39
COc1cc(N2CC[C@H](OC)[C@H](F)C2)c(-c2cnn(C)c2)cc1Nc1ncc(Br)c(Nc2ccc3nccnc3c2P(C)(C)=O)n1 [compound 187]	245	0.04	5.73	8.73	2.11
COc1cc(N2CCC(C)(OC)CC2)c(-c2cnn(C)c2)cc1Nc1ncc(Br)c(Nc2ccc3nccnc3c2P(C)(C)=O)n1 [compound 188]	56.6	0.43	5.62	0.87	0.61
COc1cc(N2CCC(N3CCN(C)CC3)C(F)C2)c(-c2cnn(C)c2)cc1Nc1ncc(Br)c(Nc2ccc3nccnc3c2P(C)(C)=O)n1 (stereo not drawn) [compound 189]	128	0.16	1.08	23.6	9.18
COc1cc(N2CCC(N3CCN(C)CC3)CC2)c(-c2cnn(C)c2)cc1Nc1ncc(Br)c(Nc2ccccc2N(C)S(=O)(=O)C2CC2)n1 [compound 190]	194	0.53	4.37	8.69	4.16
COc1cc(N2CCN(CCN3CCOCC3)CC2)c(-c2cnn(C)c2)cc1Nc1ncc(Br)c(Nc2ccc3nccnc3c2P(C)(C)=O)n1 [compound 191]	70	0.23	2.44	11.4	3.47
COc1cc(N2CCC(N3CCN(C)C(C)C3)CC2)c(-c2cnn(C)c2)cc1Nc1ncc(Br)c(Nc2ccc3nccnc3c2P(C)(C)=O)n1 (stereo not drawn) [compound 193]	59.9	0.27	0.99	9.83	4.48
COc1cc(N2CCC3(CC2)CN(C)CCN3C)c(-c2cnn(C)c2)cc1Nc1ncc(Br)c(Nc2ccc3nccnc3c2P(C)(C)=O)n1 [compound 194]	79.5	0.17	2.85	16.4	5.56
COc1cc(N2CCC3(CC2)CN(C)CCO3)c(-c2cnn(C)c2)cc1Nc1ncc(Br)c(Nc2cc3c(cc2N(C)S(C)(=O)=O)CC3)n1 [compound 195]	415	2.33	8.52	12.5	7.7
COc1cc(N2CCC3(CCN(C)CC3)CC2)c(-c2cnn(C)c2)cc1Nc1ncc(Br)c(Nc2cc3c(cc2N(C)S(C)(=O)=O)CC3)n1 [compound 196]	356	0.59	3.35	20.8	12.3
COc1cc(N2CCC(N3CC(C)N(C)C(C)C3)CC2)c(-c2cnn(C)c2)cc1Nc1ncc(Br)c(Nc2ccc3nccnc3c2P(C)(C)=O)n1 (stereo not drawn) [compound 197]	95.6	0.25	0.62	14.3	7.7
